Test results published in patent US4570006A, “Amidine compound, process for producing same and anti-complement agent comprising same” (Torii & Co. Ltd., priority 1981, dated 1986).

Tests used:
[1] = molecular target: T1, Cls (Homo sapiens, UniProt P09871); assay: Anti-Cl esterase activity, Cls (ATEE hydrolysis); assay type: biochemical; conditions: hydrolysis of ATEE; read-out: Anti-Cl activity, Cls (50% inhibition)
T1 sequence (P09871 438-688 limits assumed): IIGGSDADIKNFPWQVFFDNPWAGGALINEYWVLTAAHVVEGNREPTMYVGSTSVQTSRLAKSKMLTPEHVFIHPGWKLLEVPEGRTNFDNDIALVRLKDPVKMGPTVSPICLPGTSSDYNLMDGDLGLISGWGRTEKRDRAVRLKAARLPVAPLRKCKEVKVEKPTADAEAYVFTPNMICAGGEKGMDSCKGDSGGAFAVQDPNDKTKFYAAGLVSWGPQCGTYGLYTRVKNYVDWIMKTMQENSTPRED
T1 sequence (P09871 16-437 limits assumed): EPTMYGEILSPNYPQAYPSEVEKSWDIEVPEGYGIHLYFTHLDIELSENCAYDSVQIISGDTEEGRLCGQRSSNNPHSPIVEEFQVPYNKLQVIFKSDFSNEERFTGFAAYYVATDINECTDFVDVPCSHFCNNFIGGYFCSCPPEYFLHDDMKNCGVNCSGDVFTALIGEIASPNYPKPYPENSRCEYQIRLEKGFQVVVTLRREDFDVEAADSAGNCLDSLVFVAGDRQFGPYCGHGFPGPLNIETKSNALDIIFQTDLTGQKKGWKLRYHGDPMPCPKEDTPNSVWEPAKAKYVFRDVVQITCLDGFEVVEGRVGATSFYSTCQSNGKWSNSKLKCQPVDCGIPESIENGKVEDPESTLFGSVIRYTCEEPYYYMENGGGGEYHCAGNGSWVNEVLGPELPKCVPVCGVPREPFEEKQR
Protocol: The anti-Cl esterase (Clr, Cls) activity was determined according to the method of Okamura et al. [K. Okamura, M. Muramatsu and B. Fujii, Biochem. Biophys. […] The figures in Table 2 have the following meanings:
Cls: Molar concentration of the test compound which inhibits 50% of the ability of Cls to hydrolyse ATEE (acetyltyrosin ethyl ester).

[2] = tested on: Kallikrein; assay: Anti-kallikrein activity (inhibition of TAME hydrolysis); assay type: biochemical; conditions: read-out: ID50, kallikrein
How it was run: (§1)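 Inhibition of enzymatic TAME (tosylarginine methyl ester) hydrolysis, per Muramatsu et al. Values are ID50, the molar concentration of compound inhibiting 50% of each enzyme's TAME-hydrolysing activity.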

[3] = molecular target: T2, Trypsin (Bos taurus, UniProt P00760); assay: Anti-trypsin activity (inhibition of TAME hydrolysis); assay type: biochemical; conditions: read-out: ID50, trypsin
T2 sequence (P00760 24-246): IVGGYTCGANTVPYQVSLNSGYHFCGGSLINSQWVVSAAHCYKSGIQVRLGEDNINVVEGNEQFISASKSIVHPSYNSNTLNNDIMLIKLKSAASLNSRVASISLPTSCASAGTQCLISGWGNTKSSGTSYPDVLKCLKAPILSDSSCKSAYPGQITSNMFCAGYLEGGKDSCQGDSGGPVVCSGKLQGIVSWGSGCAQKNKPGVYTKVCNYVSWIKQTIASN
How it was run: as §1

[4] = molecular target: Plasmin (Homo sapiens, UniProt P00747); assay: Anti-plasmin activity (inhibition of TAME hydrolysis); assay type: biochemical; conditions: read-out: ID50, plasmin
Plasmin, sequence (P00747 581-810 limits assumed, species assumed): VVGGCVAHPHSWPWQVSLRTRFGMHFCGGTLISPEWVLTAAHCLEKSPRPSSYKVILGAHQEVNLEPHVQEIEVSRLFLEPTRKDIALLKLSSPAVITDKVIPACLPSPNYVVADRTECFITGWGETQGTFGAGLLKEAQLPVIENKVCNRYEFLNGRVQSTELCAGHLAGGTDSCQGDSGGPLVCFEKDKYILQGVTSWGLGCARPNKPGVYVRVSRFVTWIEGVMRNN
Plasmin, sequence (P00747 97-580 limits assumed, species assumed): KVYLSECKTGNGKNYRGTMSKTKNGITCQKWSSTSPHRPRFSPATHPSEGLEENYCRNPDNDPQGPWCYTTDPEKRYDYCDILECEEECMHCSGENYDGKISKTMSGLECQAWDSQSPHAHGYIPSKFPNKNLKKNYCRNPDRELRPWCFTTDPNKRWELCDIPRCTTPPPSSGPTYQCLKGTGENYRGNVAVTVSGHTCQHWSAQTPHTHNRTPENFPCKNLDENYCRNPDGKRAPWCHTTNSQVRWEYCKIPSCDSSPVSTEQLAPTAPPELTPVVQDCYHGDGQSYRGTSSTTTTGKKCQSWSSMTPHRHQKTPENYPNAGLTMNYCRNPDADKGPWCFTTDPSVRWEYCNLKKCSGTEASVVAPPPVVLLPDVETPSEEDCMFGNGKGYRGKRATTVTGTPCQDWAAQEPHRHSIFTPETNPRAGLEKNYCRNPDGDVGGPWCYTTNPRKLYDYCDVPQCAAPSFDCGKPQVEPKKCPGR
How it was run: as §1

[5] = molecular target: Thrombin (Homo sapiens, UniProt P00734); assay: biochemical; conditions: TAME hydrolysis; read-out: ID50, thrombin
[6] = molecular target: T3, Clr (Homo sapiens, UniProt P00736); assay: Anti-Cl esterase activity, Clr (AAME hydrolysis); assay type: biochemical; conditions: hydrolysis of AAME; read-out: Anti-Cl activity, Clr (ID50)
T3 sequence (P00736 464-705 limits assumed): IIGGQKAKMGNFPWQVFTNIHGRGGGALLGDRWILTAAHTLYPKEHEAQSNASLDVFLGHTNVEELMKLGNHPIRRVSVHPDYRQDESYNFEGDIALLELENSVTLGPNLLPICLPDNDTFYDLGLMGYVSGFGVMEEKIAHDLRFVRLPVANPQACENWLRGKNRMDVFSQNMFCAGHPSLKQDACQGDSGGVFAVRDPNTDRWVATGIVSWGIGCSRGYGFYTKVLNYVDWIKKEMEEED
T3 sequence (P00736 18-463 limits assumed): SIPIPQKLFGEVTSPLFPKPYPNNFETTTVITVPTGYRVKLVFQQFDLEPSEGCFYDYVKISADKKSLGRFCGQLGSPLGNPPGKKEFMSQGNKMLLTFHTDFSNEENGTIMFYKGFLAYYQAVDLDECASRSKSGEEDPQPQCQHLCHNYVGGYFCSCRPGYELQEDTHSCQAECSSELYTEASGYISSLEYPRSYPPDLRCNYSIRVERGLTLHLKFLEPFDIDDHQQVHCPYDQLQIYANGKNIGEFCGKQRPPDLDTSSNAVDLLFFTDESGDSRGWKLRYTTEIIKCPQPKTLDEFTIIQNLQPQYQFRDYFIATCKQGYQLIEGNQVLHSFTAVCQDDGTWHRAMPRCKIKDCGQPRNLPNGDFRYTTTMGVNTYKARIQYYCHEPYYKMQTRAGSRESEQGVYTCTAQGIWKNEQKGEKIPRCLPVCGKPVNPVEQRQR
Protocol: The anti-Cl esterase ([…]) activity was determined according to the method of Okamura et al. [K. Okamura, M. Muramatsu and B. Fujii, Biochem. Biophys.

[7] = Toxicity, median lethal dose (LD50); conditions: in vivo
[8] = tested on: complement; assay: Inhibition of complement mediated hemolysis; assay type: cell-based
[9] = tested on: Masugi nephritis; assay: Therapeutic experiment on Masugi's nephritis (protein content of urine); assay type: in vivo; conditions: rats; for Percentage inhibition (decrease in protein content of urine): methanesulfonate, oral 100 mg/kg twice a day, eight days
Description: The protein content of the animal's urine is used as the parameter for the progress of Masugi nephritis. […] From the result, it may be said that the compound of this invention having a Cl-esterase inhibitory activity is useful as a remedy for the glomerulonephritis and is also useful as a remedy for autoimmune diseases inclusive of glomerulonephritis.
Experimental nephritis were induced in rats by intravenous injection of nephrotoxin prepared according to the method of Shibata et al. ["Experimental Immunoallergy.", p. 664 (1971), Bunkodo, Tokyo]. Each member of the medicine administered group had been orally administered with methanesulfonate of Compound No. 69 at a dose rate of 100 mg/kg body weight, twice a day, for eight consecutive days. On the second day from the beginning of medicine administration, nephrotoxin was intravenously administered. The effectiveness was evaluated by determining the difference in protein content of urine between the nephritic group (control group) and the medicine administered group on the 6th day (5th day after the administration of nephrotoxin) and 9th day from the beginning of medicine administration.
The percentage inhibition indicates the degree of decrease in protein content of urine of the medicine administered group as compared with the control group.

N=C(N)Nc1ccc(C(=O)Oc2ccc(C(=N)N)cc2[N+](=O)[O-])cc1 [Compound 70, 4-amidino-2-nitrophenyl 4-guanidinobenzoate]
IC50 [1]: 200 nM
IC50 [2]: 40000 nM
IC50 [3]: 30 nM
IC50 [4]: 700 nM
IC50 [5]: 500 nM
IC50 [6]: 3000 nM
LD50 ([7]; ip): 200 mg/kg
LD50 ([7]; po): 2500 mg/kg
Inhibition of complement mediated hemolysis (%) ([8]; compound at 1 × 10^-4): 100%
Inhibition of complement mediated hemolysis (%) ([8]; compound at 1 × 10^-5): 100%
Inhibition of complement mediated hemolysis (%) ([8]; compound at 1 × 10^-6): 97.0%
Inhibition of complement mediated hemolysis (%) ([8]; compound at 1 × 10^-7): 46.1%

N=C(N)c1ccc(OC(=O)c2ccc(CNC(=O)OCc3ccccc3)cc2)c([N+](=O)[O-])c1 [Compound 61]
IC50 [1]: 300 nM
IC50 [2]: 1000 nM
IC50 [3]: 200 nM
IC50 [4]: 200 nM
IC50 [5]: 400 nM
IC50 [6]: 400 nM
Inhibition of complement mediated hemolysis (%) ([8]; compound at 1 × 10^-4): 98.6%
Inhibition of complement mediated hemolysis (%) ([8]; compound at 1 × 10^-5): 100%
Inhibition of complement mediated hemolysis (%) ([8]; compound at 1 × 10^-6): 98.0%
Inhibition of complement mediated hemolysis (%) ([8]; compound at 1 × 10^-7): 76.1%

COC(=O)c1ccc(C(=O)Oc2ccc(C(=N)N)cc2C(=O)c2ccccc2)cc1 [Compound 50]
IC50 [1]: > 10000 nM
IC50 [2]: > 10000 nM
IC50 [3]: 4000 nM
IC50 [4]: 500 nM
IC50 [5]: 200 nM
IC50 [6]: 9000 nM
Inhibition of complement mediated hemolysis (%) ([8]; compound at 1 × 10^-4): 98.8%
Inhibition of complement mediated hemolysis (%) ([8]; compound at 1 × 10^-5): 75.4%
Inhibition of complement mediated hemolysis (%) ([8]; compound at 1 × 10^-6): 6.9%
Inhibition of complement mediated hemolysis (%) ([8]; compound at 1 × 10^-7): 0%

Cc1ccc(C(=O)Oc2ccc(C(=N)N)cc2[N+](=O)[O-])cc1 [Compound 37]
IC50 [1]: 60 nM
IC50 [2]: 700 nM
IC50 [3]: 50 nM
IC50 [4]: 400 nM
IC50 [5]: 300 nM
IC50 [6]: 40 nM
Inhibition of complement mediated hemolysis (%) ([8]; compound at 1 × 10^-4): 95.9%
Inhibition of complement mediated hemolysis (%) ([8]; compound at 1 × 10^-5): 37.3%
Inhibition of complement mediated hemolysis (%) ([8]; compound at 1 × 10^-6): 16.0%
Inhibition of complement mediated hemolysis (%) ([8]; compound at 1 × 10^-7): 0%

COc1cc(C(=N)N)ccc1OC(=O)c1ccc(C)cc1 [Compound 35]
IC50 [1]: 300 nM
IC50 [2]: > 10000 nM
IC50 [3]: 1000 nM
IC50 [4]: 5000 nM
IC50 [5]: 3000 nM
IC50 [6]: 400 nM
Inhibition of complement mediated hemolysis (%) ([8]; compound at 1 × 10^-4): 88.8%
Inhibition of complement mediated hemolysis (%) ([8]; compound at 1 × 10^-5): 43.9%
Inhibition of complement mediated hemolysis (%) ([8]; compound at 1 × 10^-6): 29.9%
Inhibition of complement mediated hemolysis (%) ([8]; compound at 1 × 10^-7): 11.8%

COc1cc(C(=N)N)ccc1OC(=O)CCCCCNC(=N)N [Compound 14, 4-amidino-2-methoxyphenyl 6-guanidinocaproate]
IC50 [1]: > 10000 nM
IC50 [2]: 10000 nM
IC50 [3]: 10000 nM
IC50 [4]: 10000 nM
IC50 [5]: 10000 nM
IC50 [6]: > 10000 nM
Inhibition of complement mediated hemolysis (%) ([8]; compound at 1 × 10^-4): 63.6%
Inhibition of complement mediated hemolysis (%) ([8]; compound at 1 × 10^-5): 16.2%
Inhibition of complement mediated hemolysis (%) ([8]; compound at 1 × 10^-6): 7.0%
Inhibition of complement mediated hemolysis (%) ([8]; compound at 1 × 10^-7): 0%

N=C(N)Nc1ccc(C(=O)Oc2ccc(C(=N)N)cc2C(=O)c2ccccc2)cc1 [Compound 69, 4-amidino-2-benzoylphenyl 4-guanidinobenzoate]
IC50 [1]: 400 nM
IC50 [2]: 400 nM
IC50 [3]: 80 nM
IC50 [4]: 2000 nM
Percentage inhibition (decrease in protein content of urine) ([9]; 5th day): 81%
Percentage inhibition (decrease in protein content of urine) ([9]; 8th day): 39%
protein content of urine, Masugi nephritis ([9]; result in words): distinctly decreased the protein content of urine
IC50 [5]: 200 nM
IC50 [6]: 2000 nM
LD50 ([7]; ip): 192 mg/kg
LD50 ([7]; po): 1700 mg/kg
Inhibition of complement mediated hemolysis (%) ([8]; compound at 1 × 10^-4): 100%
Inhibition of complement mediated hemolysis (%) ([8]; compound at 1 × 10^-5): 99.6%
Inhibition of complement mediated hemolysis (%) ([8]; compound at 1 × 10^-6): 86.5%
Inhibition of complement mediated hemolysis (%) ([8]; compound at 1 × 10^-7): 7.2%

COc1cc(C(=N)N)ccc1OC(=O)c1ccc(CNC(=O)OCc2ccccc2)cc1 [Compound 57, 4-amidino-2-methoxyphenyl 4-benzyloxycarbonylaminomethylbenzoate]
IC50 [1]: 2000 nM
IC50 [2]: 3000 nM
IC50 [3]: 2000 nM
IC50 [4]: 200 nM
IC50 [5]: 8000 nM
IC50 [6]: > 10000 nM
Inhibition of complement mediated hemolysis (%) ([8]; compound at 1 × 10^-4): 70.5%
Inhibition of complement mediated hemolysis (%) ([8]; compound at 1 × 10^-5): 14.8%
Inhibition of complement mediated hemolysis (%) ([8]; compound at 1 × 10^-6): 2.3%
Inhibition of complement mediated hemolysis (%) ([8]; compound at 1 × 10^-7): 0%
